Assay [1] deals with HEK293. As to the kind of experiment: inhibition of NOD1-driven NF-kB reporter – cell-based, luminescence, uHTS, primary screen (AID 1578). Format: functional. As to conditions: Homo sapiens.
For assay [2], the system named is HEK293. In words: cells. Format: functional, cell-based. As to conditions: Homo sapiens.
In assay [3] the test system is HEK293. In words: cells. Format: functional, cell-based. As to conditions: Homo sapiens. The source holds these as a separate data set.
Assay [4] has as its target Nucleotide-binding oligomerization domain-containing protein 2 (Homo sapiens, UniProt Q9HC29). In words: inhibition of NOD2-driven NF-kB reporter – cell-based, luminescence, uHTS, HEK293 (AID 1566). Format: functional.
Assay [5] relates to HEK293. As to the kind of experiment: NOD2 signaling inhibitors in MDP-stimulated cells, cell-based, uHTS, luminescence (AID 2001). Format: functional. As to conditions: Homo sapiens.
Assay [6] has as its system HEK293. In words: cells. Format: functional, cell-based. Conditions: Homo sapiens. This is another data set of the same source.
A short description of assay [7]: microbe, parasite or virus in culture. Format: functional. Conditions: Mycobacterium tuberculosis.
The nature of assay [8]: HPDE-C7 pancreatic duct cell viability loss – fluorescence, HTS (AID 430). Format: functional, cell-based. As to conditions: Homo sapiens.
A short description of assay [9]: viability loss of HPDE-C7K cells – cell-based, fluorescence, HTS, primary screen (AID 431). Conditions: Homo sapiens. Format: functional.
The test system of assay [10] is Streptococcus sp. 'group A'. In words: Streptococcus pyogenes SK(-)GAS viability under kanamycin – luminescence, BacTiterGlo, confirmation, counter-screen for streptokinase expression inhibitor project, dose response (AID 1900). Format: functional, organism-based. (Counterscreens check selectivity or assay interference.)
Another assay has as its target T1, Streptokinase A (Streptococcus pyogenes serotype M1, UniProt P10520).
T1 sequence (P10520 whole entry): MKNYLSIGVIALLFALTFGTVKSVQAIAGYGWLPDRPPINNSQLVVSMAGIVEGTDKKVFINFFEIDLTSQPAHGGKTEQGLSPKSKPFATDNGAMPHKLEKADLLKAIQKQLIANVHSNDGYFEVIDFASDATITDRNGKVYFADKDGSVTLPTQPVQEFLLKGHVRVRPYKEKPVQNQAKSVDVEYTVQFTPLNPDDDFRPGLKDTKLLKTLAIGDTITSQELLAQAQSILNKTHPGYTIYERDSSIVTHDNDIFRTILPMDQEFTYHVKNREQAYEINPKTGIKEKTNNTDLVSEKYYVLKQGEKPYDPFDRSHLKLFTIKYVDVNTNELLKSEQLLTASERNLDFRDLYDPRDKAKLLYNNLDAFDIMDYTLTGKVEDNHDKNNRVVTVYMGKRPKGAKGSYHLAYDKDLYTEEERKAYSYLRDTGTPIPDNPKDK
In words: viability-normalized secreted streptokinase activity reduction – plasminogen activation absorbance, OD405, dose response (AID 1914).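 Note: secreted streptokinase activity via plasminogen activation per viability signal from cell pellet.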 Format: functional, Streptococcus pyogenes M1 GAS.

Assay [11] can be described thus: antiviral protection against BTV-induced cell death – arbovirus, BSR cells, confirmation (AID 1250).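 Note: protection from viral cytopathic effect measured as cell viability by ATP luminescence.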 Format: functional.
Assay [12] deals with Induced myeloid leukemia cell differentiation protein Mcl-1 (Homo sapiens, UniProt Q07820). Format: functional.
Induced myeloid leukemia cell differentiation protein Mcl-1, sequence (Q07820 whole entry): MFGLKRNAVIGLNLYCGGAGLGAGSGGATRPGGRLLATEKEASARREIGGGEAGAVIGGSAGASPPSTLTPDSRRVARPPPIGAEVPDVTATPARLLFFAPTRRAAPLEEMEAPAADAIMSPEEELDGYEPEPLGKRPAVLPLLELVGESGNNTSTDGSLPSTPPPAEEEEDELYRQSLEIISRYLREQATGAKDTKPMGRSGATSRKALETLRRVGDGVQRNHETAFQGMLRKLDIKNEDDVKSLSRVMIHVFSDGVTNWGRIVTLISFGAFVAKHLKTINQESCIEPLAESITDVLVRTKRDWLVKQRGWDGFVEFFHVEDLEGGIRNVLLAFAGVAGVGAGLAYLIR
A further assay concerns Streptococcus. As to the kind of experiment: GAS UMAA2166 growth inhibition – luminescence, BacTiterGlo, counter-screen for streptokinase expression inhibitor project, dose response (AID 1915).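 Note: potency for reduction of bacterial viability or growth.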 Format: functional, organism-based.
The target in assay [13] is T2, Fatty acid synthase (Homo sapiens, UniProt P49327). As to the kind of experiment: inhibition of human FAS-TE enzyme activity – biochemical, endpoint fluorescence intensity, uHTS hits, dose response (AID 624327).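 Note: fluorescence from hydrolysis of an O-methyl fluorescein acyl ester substrate by the enzyme.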 Format: functional.
T2 sequence (P49327 whole entry): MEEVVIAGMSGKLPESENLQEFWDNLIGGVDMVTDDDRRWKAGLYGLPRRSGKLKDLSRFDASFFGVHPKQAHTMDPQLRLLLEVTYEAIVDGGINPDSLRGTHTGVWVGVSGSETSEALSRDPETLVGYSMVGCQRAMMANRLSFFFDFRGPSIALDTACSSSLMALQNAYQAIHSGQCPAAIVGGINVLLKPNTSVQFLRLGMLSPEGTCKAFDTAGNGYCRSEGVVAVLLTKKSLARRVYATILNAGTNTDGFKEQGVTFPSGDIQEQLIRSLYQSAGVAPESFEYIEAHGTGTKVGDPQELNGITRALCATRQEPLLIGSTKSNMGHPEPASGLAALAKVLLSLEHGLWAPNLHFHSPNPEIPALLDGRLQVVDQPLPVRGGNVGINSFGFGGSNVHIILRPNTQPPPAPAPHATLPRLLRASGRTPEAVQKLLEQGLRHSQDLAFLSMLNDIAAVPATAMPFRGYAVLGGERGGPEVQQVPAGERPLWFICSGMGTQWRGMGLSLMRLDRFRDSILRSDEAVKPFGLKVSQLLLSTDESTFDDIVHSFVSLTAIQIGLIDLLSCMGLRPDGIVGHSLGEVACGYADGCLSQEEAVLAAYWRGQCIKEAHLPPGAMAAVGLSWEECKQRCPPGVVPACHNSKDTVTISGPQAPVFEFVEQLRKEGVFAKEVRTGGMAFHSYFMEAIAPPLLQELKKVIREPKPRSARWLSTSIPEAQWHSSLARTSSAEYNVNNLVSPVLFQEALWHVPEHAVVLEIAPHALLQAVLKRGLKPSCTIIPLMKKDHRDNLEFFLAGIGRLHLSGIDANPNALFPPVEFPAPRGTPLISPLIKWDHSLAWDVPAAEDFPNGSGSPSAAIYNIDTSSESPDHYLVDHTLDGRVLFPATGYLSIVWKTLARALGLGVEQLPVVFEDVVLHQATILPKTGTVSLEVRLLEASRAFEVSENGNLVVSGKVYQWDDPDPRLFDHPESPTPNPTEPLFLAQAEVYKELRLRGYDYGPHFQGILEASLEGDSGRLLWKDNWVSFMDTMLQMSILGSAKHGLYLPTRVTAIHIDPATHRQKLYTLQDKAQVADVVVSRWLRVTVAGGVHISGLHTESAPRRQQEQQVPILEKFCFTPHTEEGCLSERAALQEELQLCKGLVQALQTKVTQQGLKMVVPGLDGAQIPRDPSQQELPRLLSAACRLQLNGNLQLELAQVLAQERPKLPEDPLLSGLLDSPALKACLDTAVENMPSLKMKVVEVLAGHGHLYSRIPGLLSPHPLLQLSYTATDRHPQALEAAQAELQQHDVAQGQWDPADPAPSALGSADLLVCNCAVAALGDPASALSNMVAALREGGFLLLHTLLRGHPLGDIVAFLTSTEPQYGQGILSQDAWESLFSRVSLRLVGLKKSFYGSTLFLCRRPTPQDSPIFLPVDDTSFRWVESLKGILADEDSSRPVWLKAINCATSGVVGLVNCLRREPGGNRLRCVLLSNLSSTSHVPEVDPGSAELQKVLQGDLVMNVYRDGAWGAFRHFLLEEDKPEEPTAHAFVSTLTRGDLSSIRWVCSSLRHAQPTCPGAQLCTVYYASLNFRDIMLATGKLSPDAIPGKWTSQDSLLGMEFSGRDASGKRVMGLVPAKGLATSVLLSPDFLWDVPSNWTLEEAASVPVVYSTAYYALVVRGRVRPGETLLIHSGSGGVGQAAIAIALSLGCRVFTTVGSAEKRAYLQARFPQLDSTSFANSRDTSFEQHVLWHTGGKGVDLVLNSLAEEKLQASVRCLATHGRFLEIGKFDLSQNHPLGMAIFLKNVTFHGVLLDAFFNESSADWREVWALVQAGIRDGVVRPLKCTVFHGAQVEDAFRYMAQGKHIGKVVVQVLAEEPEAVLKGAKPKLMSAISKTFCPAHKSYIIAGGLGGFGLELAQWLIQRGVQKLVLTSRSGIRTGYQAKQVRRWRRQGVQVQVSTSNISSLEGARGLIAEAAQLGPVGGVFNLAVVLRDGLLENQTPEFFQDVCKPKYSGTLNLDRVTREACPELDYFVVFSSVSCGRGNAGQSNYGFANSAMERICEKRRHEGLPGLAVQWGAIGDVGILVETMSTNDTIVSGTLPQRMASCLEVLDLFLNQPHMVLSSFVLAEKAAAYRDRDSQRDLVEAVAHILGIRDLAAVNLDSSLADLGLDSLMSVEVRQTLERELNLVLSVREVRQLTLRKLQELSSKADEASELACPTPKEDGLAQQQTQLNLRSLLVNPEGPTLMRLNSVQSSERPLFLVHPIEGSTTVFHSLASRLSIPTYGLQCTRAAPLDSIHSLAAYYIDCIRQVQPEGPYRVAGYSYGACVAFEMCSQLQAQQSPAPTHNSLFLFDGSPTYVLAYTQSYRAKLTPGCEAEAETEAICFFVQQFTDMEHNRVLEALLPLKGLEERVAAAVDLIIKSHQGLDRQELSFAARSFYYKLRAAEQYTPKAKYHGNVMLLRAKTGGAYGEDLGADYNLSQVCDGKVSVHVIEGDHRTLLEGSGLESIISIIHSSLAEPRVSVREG
Assay [14] addresses T2, Fatty acid synthase. In words: inhibition of human FAS-TE enzyme activity – biochemical, kinetic fluorescence intensity, dose response (AID 624326).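 Note: rate of fluorescence rise from hydrolysis of a fluorogenic O-methyl fluorescein ester substrate.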 Format: functional.
Assay [15] deals with T3, Serine/threonine-protein phosphatase (Homo sapiens, UniProt Q9BPW0).
T3 sequence (Q9BPW0 whole entry): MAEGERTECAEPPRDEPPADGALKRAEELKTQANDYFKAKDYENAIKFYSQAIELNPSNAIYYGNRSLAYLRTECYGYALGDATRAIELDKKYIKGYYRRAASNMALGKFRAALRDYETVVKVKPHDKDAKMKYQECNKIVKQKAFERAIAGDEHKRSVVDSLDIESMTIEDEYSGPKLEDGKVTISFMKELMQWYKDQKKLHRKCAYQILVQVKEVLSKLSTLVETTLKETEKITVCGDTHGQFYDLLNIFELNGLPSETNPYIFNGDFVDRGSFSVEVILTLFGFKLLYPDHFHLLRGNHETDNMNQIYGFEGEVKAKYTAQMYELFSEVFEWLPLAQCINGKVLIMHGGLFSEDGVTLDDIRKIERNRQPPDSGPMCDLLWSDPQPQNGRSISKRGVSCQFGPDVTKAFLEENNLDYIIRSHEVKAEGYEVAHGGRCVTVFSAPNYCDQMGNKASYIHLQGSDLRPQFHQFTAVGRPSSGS
As to the kind of experiment: Counterscreen for inhibitors of PP1: fluorescence-based biochemical high throughput dose response assay to identify inhibitors of Protein Phosphatase 5 (PP5). [Related pubchem assays: 2034 (Summary (PP5 inhibitors)), 1987 (PP5 inhibitors in singlate), 2235 (PP1 inhibitors in singlate)].

The target in assay [16] is Heat shock protein HSP 90-alpha (Homo sapiens, UniProt P07900). Format: functional, organism-based.
Another assay concerns the target T4, Estrogen receptor (Homo sapiens, UniProt P03372).
T4 sequence (P03372 whole entry): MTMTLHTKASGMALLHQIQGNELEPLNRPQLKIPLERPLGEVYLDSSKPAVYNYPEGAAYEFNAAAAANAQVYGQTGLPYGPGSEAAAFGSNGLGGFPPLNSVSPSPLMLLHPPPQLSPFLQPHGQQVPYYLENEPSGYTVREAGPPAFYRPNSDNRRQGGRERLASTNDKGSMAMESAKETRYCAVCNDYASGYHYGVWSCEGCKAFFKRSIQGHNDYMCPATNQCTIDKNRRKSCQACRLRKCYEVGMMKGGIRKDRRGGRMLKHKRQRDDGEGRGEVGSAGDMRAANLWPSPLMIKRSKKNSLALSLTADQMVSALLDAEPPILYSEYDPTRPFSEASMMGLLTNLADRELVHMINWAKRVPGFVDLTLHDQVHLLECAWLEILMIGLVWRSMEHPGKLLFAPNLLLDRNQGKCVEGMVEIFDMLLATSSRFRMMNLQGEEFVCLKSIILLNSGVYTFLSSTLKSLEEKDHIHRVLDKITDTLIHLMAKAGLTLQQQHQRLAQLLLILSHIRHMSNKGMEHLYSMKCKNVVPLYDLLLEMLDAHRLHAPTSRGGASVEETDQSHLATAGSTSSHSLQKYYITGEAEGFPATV
As to the kind of experiment: ERα coactivator recruitment enhancers – biochemical, TR-FRET, ERα LBD, dose response (AID 737).

The next assay addresses Cytochrome P450 2C9 (Homo sapiens, UniProt P11712).
The subject of a further assay is H9c2. In words: cells. Format: functional, cell-based. As to conditions: Rattus norvegicus, H9c2, Myocardium.

Active and inactive are the calls of the source.

Nucleotide-binding oligomerization domain-containing protein 2, sequence (Q9HC29 whole entry, the tested form may be a part): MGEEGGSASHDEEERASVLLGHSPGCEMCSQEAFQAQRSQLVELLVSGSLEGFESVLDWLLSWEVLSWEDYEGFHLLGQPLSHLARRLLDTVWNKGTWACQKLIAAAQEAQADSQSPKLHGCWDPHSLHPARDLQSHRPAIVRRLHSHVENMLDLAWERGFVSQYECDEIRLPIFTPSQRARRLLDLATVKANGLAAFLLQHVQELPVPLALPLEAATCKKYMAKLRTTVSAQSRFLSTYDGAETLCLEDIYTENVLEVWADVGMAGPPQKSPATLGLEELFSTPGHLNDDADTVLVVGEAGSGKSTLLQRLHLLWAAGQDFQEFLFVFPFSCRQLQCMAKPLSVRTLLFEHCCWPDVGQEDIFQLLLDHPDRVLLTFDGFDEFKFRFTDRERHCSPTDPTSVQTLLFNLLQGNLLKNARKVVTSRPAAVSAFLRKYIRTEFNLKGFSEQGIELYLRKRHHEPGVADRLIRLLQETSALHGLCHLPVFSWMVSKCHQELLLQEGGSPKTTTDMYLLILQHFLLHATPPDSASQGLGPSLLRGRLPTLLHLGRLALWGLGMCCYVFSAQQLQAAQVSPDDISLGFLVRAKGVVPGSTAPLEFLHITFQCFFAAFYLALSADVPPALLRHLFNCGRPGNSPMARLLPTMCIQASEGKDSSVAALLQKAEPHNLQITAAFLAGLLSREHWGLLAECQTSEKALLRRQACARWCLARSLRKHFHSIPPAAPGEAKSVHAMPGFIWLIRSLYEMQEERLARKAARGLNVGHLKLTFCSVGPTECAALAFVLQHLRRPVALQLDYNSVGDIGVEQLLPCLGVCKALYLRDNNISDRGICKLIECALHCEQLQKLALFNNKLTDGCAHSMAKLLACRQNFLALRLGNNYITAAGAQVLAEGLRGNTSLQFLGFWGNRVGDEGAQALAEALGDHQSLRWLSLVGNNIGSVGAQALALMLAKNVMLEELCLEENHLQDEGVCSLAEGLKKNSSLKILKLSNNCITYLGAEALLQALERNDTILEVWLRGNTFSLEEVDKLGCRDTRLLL
Cytochrome P450 2C9, sequence (P11712 whole entry): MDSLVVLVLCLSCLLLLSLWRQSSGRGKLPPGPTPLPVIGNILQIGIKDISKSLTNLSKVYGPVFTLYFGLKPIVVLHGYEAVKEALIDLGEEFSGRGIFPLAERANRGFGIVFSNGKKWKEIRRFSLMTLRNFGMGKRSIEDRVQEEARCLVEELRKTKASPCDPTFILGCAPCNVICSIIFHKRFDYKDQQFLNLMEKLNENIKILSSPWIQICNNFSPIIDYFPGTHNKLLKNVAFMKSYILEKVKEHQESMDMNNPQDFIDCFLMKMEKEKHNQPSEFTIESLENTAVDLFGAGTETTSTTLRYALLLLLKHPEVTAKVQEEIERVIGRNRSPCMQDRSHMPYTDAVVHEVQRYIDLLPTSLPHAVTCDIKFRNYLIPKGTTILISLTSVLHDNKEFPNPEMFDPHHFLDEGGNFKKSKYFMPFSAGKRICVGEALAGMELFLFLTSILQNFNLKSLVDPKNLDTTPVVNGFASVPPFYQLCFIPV

As for `Cc1ccc(-c2csc(N3CCN(CCCn4c(-c5ccncc5)nc5ccccc54)CC3)n2)cc1`, the 50% effective concentration (EC50) is 6.11 µM (active) with HEK293 [1] and 12.3 µM (active) in assay [4]. The IC50 in the assay with HEK293 [2] was 4.3 µM (active); in the assay on HEK293 [3], 11.4 µM (active); with HEK293 [5] it was 4.62 µM (active); in the assay on HEK293 [6], > 20 µM (inactive). For the same molecule, the CC50 in [7] was > 40 µM (active).
For `O=C(Oc1cccc2cccnc12)c1cccs1`, the concentration for a half-maximal effect (EC50) was 3.46 µM (active) in [8] and 4.38 µM (active) in assay [9].
As to `COc1cc(/C=N/n2c(-c3ccc4c(c3)NC(=O)CO4)cs/c2=N\c2cccc(C)c2)ccc1O`, in [7], the CC50 is 25 µM (active).
As for `COc1ccc(C(=O)O)cc1NC(=S)NC(=O)c1ccc(-c2ccc(Cl)cc2)o1`, the EC50 in [10] was 5.27 µM (active); on Streptokinase A, 23.8 µM (inconclusive); with Streptococcus it was > 150 µM (not active). Also, the IC50 was 27.1 µM (active) in [11], 7.13 µM (not active) in assay [12], 7.33 µM (active) at Fatty acid synthase [13] and 7.5 µM (active) at Fatty acid synthase [14].
Turning to `Cc1ccc(C(=O)CC(SCC(=O)O)c2ccc([N+](=O)[O-])cc2)cc1` (stereo not given), the CC50 in assay [7] is 30.6 µM (active).
For `O=C1OC(=O)C2C1[C@@H]1CC[C@H]2O1` (stereo not given in full), the IC50 in assay [15] was 3.06 µM (active).
On to `Cc1cc2n(n1)C(c1c[nH]c3ccccc13)Nc1ccccc1-2` (stereo not given), for which the half-maximal effective concentration (EC50) was 8.99 µM (active) in assay [10]; 18.1 µM (active) on Streptokinase A; 12 µM (active) in assay [8]; 12.9 µM (active) in assay [9]; > 150 µM (not active) in the assay on Streptococcus. The AC50 in assay [16] was 6.08 µM (active).
`Cc1ccc(S(=O)(=O)NCCn2c(C)cc3ccccc32)cc1`: the EC50 at Estrogen receptor is 28.7 µM (active). Also, at Cytochrome P450 2C9, the concentration at half-maximal activity (AC50) was 3.55 µM (inconclusive).
For `O=C1OC(=O)C2C3CCC(O3)C12` (stereo not given), the IC50 in assay [15] is 2.57 µM (active).
Consider `Cc1ccc(-c2nn3c(C)nnc3s2)cc1NC(=O)COc1ccc(Cl)cc1`, for which the 50% effective concentration (EC50) at Estrogen receptor is 17.2 µM (active). The IC50 with H9c2 is > 79 µM (inactive).

The EC50 is the concentration that produces a half-maximal response. In general, IC50 refers to the concentration needed to halve the response being measured. Usually AC50 stands for the concentration at which the activity in the assay is half-maximal.

The values are drawn from ChEMBL document CHEMBL1201862, “PubChem BioAssay data set” (2004).
